Reference: paper PMC8247401, “Evaluation of clinical and genetic factors in the population pharmacokinetics of carbamazepine” (British Journal of Clinical Pharmacology, 2020)
Where two headings read alike, the source gives them in different places.

Assays:
[1] = Population PK model (NONMEM) of plasma CBZ and 3 metabolites after oral CBZ; conditions: for effect of concomitant treatment as covariate on CBZ clearance/metabolism: categorical covariate on CLTOT in the population PK model, small numbers of subjects; for % Interindividual variability of V2: V2 shared by the 3 metabolites; for clearance: human, plasma, oral; for V2, volume of distribution of metabolites: same V2 estimated for CBZE, 2OH-CBZ and 3OH-CBZ, apparent
[2] = set-up: method as in PMID 6491988; conditions: fixed, not estimated; CL2 (to CBZE)=CLTOT*(1-FM1), CL3=CL4=CLTOT*FM1/2; cited from earlier work
[3] = cited from earlier work
[4] = set-up: method as in PMID 17382827; conditions: patients treated with CBZ, cited from earlier work
[5] = 70-kg patient prescribed 400 mg CBZ; model assumes 0.65 of CBZ converted to CBZE; cited from earlier work
[6] = tested on: microsomal epoxide hydrolase; conditions: concurrent brivaracetam therapy in patients on CBZ; cited from earlier work
[7] = final model, log-normal distribution

For `NC(=O)OCC(COC(N)=O)c1ccccc1` [felbamate], which “effect of concomitant treatment as covariate on CBZ clearance/metabolism” value (from here on “effect … on CBZ clearance/metabolism”) [1] is on record?
The value was “None of those antiepileptic drugs (AEDs) achieved a significant effect”.

Which “FM1 (metabolite fraction)” value [2] does the source give for `NC(=O)N1c2ccccc2C=Cc2ccccc21` [CBZ, Carbamazepine] here?
The value was 0.64.

And the “fraction of CBZ converted to CBZE assumed in this model” value [3]?
The value was 0.36.

And the “parent CBZ primarily converted to CBZE” value ([3]; prior mass balance information)?
The value was 36%.

And the “fraction of CBZ converted to CBZE assumed in the model of Jiao et al.” value ([3]; ref Jiao et al. (58))?
The value was 0.65.

And the “patients experiencing a hypersensitivity reaction” value [4]?
Its value is “up to 10%”.

What about the “patients experiencing a hypersensitivity reaction” value ([4]; listed as Carbamazepine) of the same compound?
The value was ~ 10%.

What about the “% Interindividual variability of CLTOT” value [1, 7] of the same compound?
The value was 25.3%.

What about the “% Interindividual variability of FM1” value [1, 7] of the same compound?
Its value is 6.3%.

What about the “% Interindividual variability of KASTAR” value [1, 7] of the same compound?
Its value is 75.3%.

What about the “% Interindividual variability of V1” value [1, 7] of the same compound?
The value was 13.6%.

And the “V1, central distribution volume of CBZ” value ([1]; population mean, final model, apparent (V/F))?
The value was 161 L.

What about the “CLTOT, total clearance of CBZ” value ([1]; population mean, final model, oral dosing, apparent (CL/F), typical value non-induced, 400 mg daily dose, no phenytoin) of the same compound?
The value was 1.96 L/h.

And the KASTAR ([1]; population mean, absorption rate constant KA=CLTOT/V1+KAstar)?
The KASTAR was 0.409 h⁻¹.

With `COc1ccc2[nH]c([S+]([O-])Cc3ncc(C)c(OC)c3C)nc2c1` (stereo not shown) [omeprazole] as the compound, how does the “effect … on CBZ clearance/metabolism” value [1] read?
Its value is “Neither was found to affect metabolism of CBZ significantly”.

Which “effect … on CBZ clearance/metabolism” value [1] does the source give for `CCC1(c2ccccc2)C(=O)NC(=O)NC1=O` [phenobarbital] here?
The value was “None of those antiepileptic drugs (AEDs) achieved a significant effect”.

What does the source list for `NC(=O)N1c2ccccc2C2OC2c2ccccc21` (stereo not shown) [CBZE, carbamazepine 10,11‐epoxide]?
CL estimate for CBZE in a previous population PK model [5]: 28 L/h; reduction of clearance of CBZE ([1]; EPHX1-416G/G genotype (3 subjects) compared with EPHX1-416G/A and -416A/A): approximately 50%; % Interindividual variability of CL2E [1, 7]: 27.9%; % Interindividual variability of V2 [1, 7]: 149.7%; clearance [1]: 162 mL/min; Cov.Eff.(EPHXAGHOM on CL2E) ([1]; multiplier on CBZE clearance in EPHX1-416G/G homozygotes (n=3) vs G/A and A/A): 0.502; V2, volume of distribution of metabolites ([1]; population mean): 39.2 L

What does the source list for `NC(=O)N1c2ccccc2C=Cc2ccc(O)cc21` [3OH‐CBZ, 3‐hydroxycarbamazepine]?
% Interindividual variability of CL4E [1, 7]: 34.5%; % Interindividual variability of V2 [1, 7]: 149.7%; clearance [1]: 9050 mL/min; V2, volume of distribution of metabolites ([1]; population mean): 39.2 L

With `CCC[C@@H]1CC(=O)N([C@@H](CC)C(N)=O)C1` [Brivaracetam] as the compound, how does the “rise in CBZE levels, median” value [6] read?
Its value is 83.9%.

And the “rise in CBZE levels, range” value [6]?
The value was 57.9–341.7%.

With `NC(=O)N1c2ccccc2C=Cc2cc(O)ccc21` [2OH‐CBZ, 2‐hydroxycarbamazepine] as the compound, how does the “% Interindividual variability of CL3E” value [1, 7] read?
Its value is 42.3%.

And the “% Interindividual variability of V2” value [1, 7]?
The value was 149.7%.

What about the clearance [1] of the same compound?
The clearance was 12100 mL/min.

What about the CL3E induction effect ([1]; multiplier (fold) on CL3E for induced period vs non-induced) of the same compound?
Its CL3E induction effect is 1.63.

What about the “V2, volume of distribution of metabolites” value ([1]; population mean) of the same compound?
Its value is 39.2 L.
